Results: the METLIN SMRT retention time set (Domingo-Almenara et al. 2019)

Experiment: gradient 5% acetonitrile 3 min, to 50% in 2 min, to 85% in 15 min, held 3 min, 100 µL/min
Settings: column: Zorbax Extend-C18 2.1 x 50 mm; eluents: water / acetonitrile, 0.1% formic acid
How it was run: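 Standards, all pure, were combined into mixtures of ~100 molecules and run at 100 μL/min on a Zorbax Extend-C18 column (2.1 × 50 mm, 1.8 μm) with water and acetonitrile, each containing 0.1% formic acid. A coupled quadrupole time-of-flight mass spectrometer operated in positive and negative ionization mode. Retention time values come from computationally picked adduct peaks, each inspected manually.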

With `Cn1cc(-c2ccc3c(c2)CCN3C(=O)Cc2cccc(C(F)(F)F)c2)c2c(N)ncnc21` the RP-LC retention time was 867 s.

`O=C(NCc1ccccc1OC(F)(F)F)c1ccc(N2CCOCC2)nn1` showed an RP-LC retention time of 777 s.

Work on `O=C(Cc1c(F)cccc1Cl)Nc1nc(-c2ccccc2)cs1` yielded an RP-LC retention time of 1040 s.

With `Cc1cc(-c2nnc(C3CC3)o2)c(C)n1CC(=O)Nc1ccc(N2CCOCC2)cc1` the RP-LC retention time was 700 s.

Work on `CCOc1ccccc1C1CC(=O)Nc2c(S(=O)(=O)c3ccccc3)csc21` (stereo not drawn) yielded an RP-LC retention time of 1010 s.

In the case of `CCCC(=O)NC1CCN(c2ccc(C)c(C)c2)C1=O` (stereo not drawn), the RP-LC retention time is reported as 736 s.

`N#Cc1ccc(NC(=O)C2Oc3ccccc3NC2=O)cc1` (stereo not drawn) showed an RP-LC retention time of 727 s.

Work on `O=C(NCC1CCN(S(=O)(=O)C2CC2)CC1)c1cnc2ccccc2n1` yielded an RP-LC retention time of 704 s.

In the case of `Cc1noc(-c2ccnc(-n3cnc(C(=O)NCCc4ccccc4)c3)c2)n1`, the RP-LC retention time is reported as 823 s.

In the case of `COc1ccc(-c2nc3cc(C)ccn3c2NC(=O)CC(C)C)cc1`, the RP-LC retention time is reported as 628 s.

In the case of `COc1ccc(-c2nnc(N3CCC(C(=O)NCc4ccco4)CC3)o2)cc1`, the RP-LC retention time is reported as 738 s.

With `Cc1noc(-c2ccc(NC(=O)c3cnn(-c4ccccc4)n3)cc2)n1` the RP-LC retention time was 980 s.

Molecule `Cc1cccc(N2C(=O)CN(CC(C)C)[C@H]3CS(=O)(=O)C[C@H]32)c1` has an RP-LC retention time of 836 s.

In the case of `CCn1cc(C2=CCN(C(=O)Nc3cc(Cl)ccc3C)CC2)c2cccnc21`, the RP-LC retention time is reported as 999 s.

`Cn1ccc2cc(S(=O)(=O)N3CCC(C(=O)NCc4ccccn4)CC3)ccc21` showed an RP-LC retention time of 641 s.

Molecule `O=C(Nc1ccccc1)C12CC1/C(=N\O)c1ccccc1O2` (stereo not drawn) has an RP-LC retention time of 825 s.

`O=C(NCCN1CCN(C(=O)CSc2nc3ccccc3s2)CC1)c1cccs1` showed an RP-LC retention time of 577 s.

In the case of `CC(Cc1cccs1)NC(=O)NCc1cccc2ccccc12` (stereo not drawn), the RP-LC retention time is reported as 881 s.

With `Cc1ccc(C)c(N2CCN(c3ccnc(SCC(=O)Nc4cccc(Cl)c4F)n3)CC2)c1` the RP-LC retention time was 1230 s.

`CC1CCCCN1Cc1nnc(-c2ccccc2)o1` (stereo not drawn) gave an RP-LC retention time of 597 s.

For `CCOC(=O)C1=C(CN2CCC(C(=O)OCC)CC2)NC(=O)NC1c1ccc(F)cc1` (stereo not drawn), the RP-LC retention time was 650 s.

`CCc1nc(-c2csc(S(=O)(=O)N3CCC(C(=O)Nc4ccc(C)cc4Cl)CC3)c2)no1` showed an RP-LC retention time of 1080 s.

`O=C(CC1CCN(C(=O)c2ccc3nc(-c4ccccc4)oc3c2)CC1)NCC1CCCO1` (stereo not drawn) gave an RP-LC retention time of 722 s.

`CCc1nc(-c2ccc(C(=O)NC)cc2)no1` showed an RP-LC retention time of 690 s.

`Cc1ccccc1S(=O)(=O)N(C)CC1CCOCC1` gave an RP-LC retention time of 837 s.

`CC(C)(C)c1ccc(-c2cc(C(=O)O)c3ccc(Br)cc3n2)cc1` gave an RP-LC retention time of 1400 s.

For `O=C(Cn1c(=O)cc(-c2nc(C3CC3)no2)c2ccccc21)Nc1ccc2c(c1)OCO2`, the RP-LC retention time was 908 s.

`O=C(Cc1cccc(C(F)(F)F)c1)Nc1cccn2ncnc12` showed an RP-LC retention time of 837 s.

Work on `Cc1ccc(-c2nc3ncccn3c2NCc2ccc(F)cc2)cc1` yielded an RP-LC retention time of 755 s.

With `FC(F)(F)c1cc(-c2cccs2)n(-c2nc(-c3ccccc3)cs2)n1` the RP-LC retention time was 1450 s.

Molecule `COc1ccc(C)cc1NC(=O)CCC1CCN(c2cc(NC3CC3)ncn2)CC1` has an RP-LC retention time of 712 s.

In the case of `CCC(C)n1nnc2cc(S(=O)(=O)N(C)CC(=O)NCCc3c[nH]c4ccccc34)ccc21` (stereo not drawn), the RP-LC retention time is reported as 885 s.

`Fc1cccc(/C=N/N=C/c2cccc(F)c2)c1` showed an RP-LC retention time of 1290 s.

`Cc1sc(-c2nnc(C3CC3)o2)cc1NC(=O)c1n[nH]c2c1CCCC2` showed an RP-LC retention time of 916 s.

For `CCOC(=O)c1ccc(NC(=O)c2cc(C)nn2-c2ccccc2)cc1`, the RP-LC retention time was 937 s.

Work on `CCc1nc(-c2cc(S(=O)(=O)N3CCC(C(=O)Nc4ccc(OC)cc4)CC3)c(C)s2)no1` yielded an RP-LC retention time of 1000 s.

Molecule `CC(C)Cc1cc(-c2nnc3sc(-c4ccc(N(C)C)cc4)nn23)n[nH]1` has an RP-LC retention time of 1060 s.

In the case of `CC(C)c1nncn1C1CCN(S(=O)(=O)c2ccccc2Cl)CC1`, the RP-LC retention time is reported as 716 s.

Molecule `COc1cccc(-c2nc(C3CCN(S(=O)(=O)c4cccc(Cl)c4)CC3)no2)c1` has an RP-LC retention time of 1160 s.

Work on `Cc1ccc2c(=O)c(C(=O)N3CCOCC3)cn(CC(=O)NCCC3=CCCCC3)c2n1` yielded an RP-LC retention time of 713 s.

For `Cn1cccc1C(=O)C(=O)Nc1ccc2c(c1)OCCO2`, the RP-LC retention time was 842 s.

`COC(=O)c1nc(NC(=O)Cn2nc3c(cc2=O)CCCC3)sc1C(C)C` gave an RP-LC retention time of 805 s.

With `CCn1c(N2CCCC(C(=O)NCc3cccc(C)c3)C2)cc(=O)n(C)c1=O` (stereo not drawn) the RP-LC retention time was 824 s.

`CCOC(=O)C1CCCN(C(=O)CCCn2c(=O)c3cccn3c3ccc(Br)cc32)C1` (stereo not drawn) gave an RP-LC retention time of 971 s.

In the case of `Cc1ccc(NC(=O)C2CCN(C(=O)C3Sc4ccccc4NC3=O)CC2)c(C)c1` (stereo not drawn), the RP-LC retention time is reported as 762 s.

`CC(=O)Nc1c(C)noc1/C=C/c1ccc(S(=O)(=O)N2CCC(C)CC2)s1` gave an RP-LC retention time of 869 s.

Work on `CC(C)C(=O)Nc1nc(-c2ccc3c(c2)NC(=O)CO3)cs1` yielded an RP-LC retention time of 739 s.

In the case of `CCn1c(SCC(=O)Nc2nc(-c3ccccc3)cs2)nnc1-c1cc2ccccc2o1`, the RP-LC retention time is reported as 1070 s.

For `COCCNC(=O)c1nc(-c2ccnc(N3CCCC3)c2)no1`, the RP-LC retention time was 585 s.

`Cc1ccccc1CNC(=O)C1CCCN(c2nnc(C)c3c(C)n(-c4ccc(Cl)cc4)nc23)C1` (stereo not drawn) showed an RP-LC retention time of 784 s.

Work on `Cc1ccc(Cl)cc1N1CCN(c2ccc3cc(S(=O)(=O)N4CCCCC4)ccc3n2)CC1` yielded an RP-LC retention time of 1000 s.

Molecule `CCOC(=O)C1=C(CN2CCCCC2)NC(=O)NC1c1cccs1` (stereo not drawn) has an RP-LC retention time of 545 s.

For `CCCNC(=O)C1CCCN(c2ccc(SCC(=O)NCc3ccc(C)cc3)nn2)C1` (stereo not drawn), the RP-LC retention time was 656 s.

In the case of `O=C(COc1ccccc1)Nc1nc(-c2ccc(F)cc2)cs1`, the RP-LC retention time is reported as 1050 s.

Work on `CCOC(=O)C(C(=O)Nc1ccccn1)C1CCCCC1` (stereo not drawn) yielded an RP-LC retention time of 908 s.

`O=C(CSc1ncnc2ccccc12)NCc1ccccc1` showed an RP-LC retention time of 708 s.

Work on `O=C(c1ccccc1)N1CCC(CCNS(=O)(=O)c2ccc(Br)cc2)CC1` yielded an RP-LC retention time of 909 s.

`CC(C)(C)C(=O)Nc1ccc(SCc2nnc(-c3ccc4c(c3)OCO4)o2)cc1` gave an RP-LC retention time of 945 s.

In the case of `O=C(Cc1ccc(Cl)cc1)NCc1nc(-c2cccc(-c3csc(C4CC4)n3)c2)no1`, the RP-LC retention time is reported as 1120 s.

Work on `O=C(NCc1cccs1)C1CCN(S(=O)(=O)c2cc(C(=O)N3CCOCC3)cs2)CC1` yielded an RP-LC retention time of 803 s.

Work on `Cn1cc(CN2CCC(C(=O)NCc3ccccc3)CC2)c2cc(Cl)ccc21` yielded an RP-LC retention time of 714 s.

Work on `O=C(Cc1csc2nc(-c3ccccc3)cn12)N1CCN(c2cccc(Cl)c2)CC1` yielded an RP-LC retention time of 949 s.

`CCN1C(=O)CN(C(=O)c2ccoc2)CC12CCOCC2` showed an RP-LC retention time of 609 s.

In the case of `O=C(CSc1nnnn1-c1ccccc1)NCCc1ccc2c(c1)OCCO2`, the RP-LC retention time is reported as 745 s.

With `Cc1ccc(-n2c(=O)c3c(cc(C)n3C)n(CC(=O)Nc3ccc(F)cc3)c2=O)cc1` the RP-LC retention time was 800 s.

Work on `CCOc1ccc(NC(=O)Cn2nc3c(Oc4ccccc4)nccn3c2=O)cc1` yielded an RP-LC retention time of 822 s.

In the case of `O=C(Cc1cccc(F)c1)NC1CCN(c2cc(-c3ccc(F)cc3)[nH]n2)C1` (stereo not drawn), the RP-LC retention time is reported as 716 s.

For `CCCN1C(=O)COc2ccc(-c3noc(C4CC(=O)N(c5ccc(OC)cc5)C4)n3)cc21` (stereo not drawn), the RP-LC retention time was 951 s.

`Cc1sc(NC(=O)Cc2nn(C)c(=O)c3ccccc23)nc1-c1ccc(Cl)cc1` showed an RP-LC retention time of 982 s.

`CCCCn1cnc2c(-c3ccccc3)cn(CC(=O)Nc3ccc(Cl)cc3)c2c1=O` showed an RP-LC retention time of 1120 s.

Molecule `Cc1ccccc1NC(=O)N1CCC(CCNC(=O)C2(c3ccccc3)CC2)CC1` has an RP-LC retention time of 873 s.

With `O=C(NC1CC1)[C@@H]1C[C@H](Oc2ccccc2)CN1C(=O)CCCc1c[nH]c2ccccc12` the RP-LC retention time was 834 s.

With `CCCC(NC(=O)Cc1cccc(OC)c1)C(=O)Nc1nc2ccccc2[nH]1` (stereo not drawn) the RP-LC retention time was 700 s.

With `CCN1C(=O)c2cccnc2Sc2cc(NC(=O)c3cccc(Cl)c3)ccc21` the RP-LC retention time was 912 s.

Work on `Cc1nc(-c2csc(S(=O)(=O)N3CCC(C(=O)Nc4ccccn4)CC3)c2)no1` yielded an RP-LC retention time of 740 s.

In the case of `CCNc1nc(C)cc(N2CCN(S(=O)(=O)c3cc(C)c(C)cc3C)CC2)n1`, the RP-LC retention time is reported as 774 s.

Molecule `CC1(C)CC(=O)C2=C(C1)N(Cc1ccco1)C(=O)C2(NC(=O)CCc1ccccc1)C(F)(F)F` (stereo not drawn) has an RP-LC retention time of 996 s.

With `O=C(Nc1ccc(F)cc1)C(=O)c1cn(CC(=O)N2CCCC2)c2ccccc12` the RP-LC retention time was 954 s.

For `O=C(c1n[nH]c2ccccc12)N1CCN(c2ccc(C(F)(F)F)cn2)CC1`, the RP-LC retention time was 832 s.

`CSc1ccc(-c2nc3ncccn3c2Nc2ccccc2C)cc1` gave an RP-LC retention time of 839 s.

With `Cc1cc(C(=O)Nc2ccc(-c3nc4ccccc4o3)cc2)c(C)o1` the RP-LC retention time was 1020 s.

In the case of `Cc1ccc(-c2nnc(N3CCC(C(=O)NC4CCCCCC4)CC3)o2)cc1`, the RP-LC retention time is reported as 949 s.

`CCOc1ccc(C(=O)N2CCC3(CC2)NC(=O)c2cc(C)ccc2N3CC)cc1` showed an RP-LC retention time of 878 s.

Work on `CCC1=C(c2ccc(C)cc2)S(=O)(=O)N=C1N1CCC(C(=O)NCc2ccco2)CC1` yielded an RP-LC retention time of 793 s.

In the case of `O=C([C@@H]1C[C@H](F)CN1C(=O)NCc1ccco1)N1CCCCC1`, the RP-LC retention time is reported as 631 s.

In the case of `Cc1ccccc1-c1noc(-c2ccc(S(=O)(=O)N3CCCC3)o2)n1`, the RP-LC retention time is reported as 1070 s.

Molecule `O=C(NCc1cccc(F)c1)C1CCN(c2cncnc2N2CCOCC2)CC1` has an RP-LC retention time of 614 s.

`COC1CC2C=C(C)/C=C/C=C/C(=O)NC(c3ccccc3)C/C=C/CCC(O)CC(=O)C2=C1O` (stereo not drawn) gave an RP-LC retention time of 977 s.
